{"source": "paper PMC8716319", "about": "(Toxicology, 2020)", "key": {"[1]": {"test": "Stability of alpha-dicarbonyl metabolites under reaction conditions", "type": "in vitro ADME", "conditions": "low (50 μM) and high (500 μM) concentrations; student's t-test p < 0.05"}, "[2]": {"molecular_target": "T1, microsomal epoxide hydrolase (Homo sapiens, UniProt P07099)", "T1 sequence (P07099 1-455)": "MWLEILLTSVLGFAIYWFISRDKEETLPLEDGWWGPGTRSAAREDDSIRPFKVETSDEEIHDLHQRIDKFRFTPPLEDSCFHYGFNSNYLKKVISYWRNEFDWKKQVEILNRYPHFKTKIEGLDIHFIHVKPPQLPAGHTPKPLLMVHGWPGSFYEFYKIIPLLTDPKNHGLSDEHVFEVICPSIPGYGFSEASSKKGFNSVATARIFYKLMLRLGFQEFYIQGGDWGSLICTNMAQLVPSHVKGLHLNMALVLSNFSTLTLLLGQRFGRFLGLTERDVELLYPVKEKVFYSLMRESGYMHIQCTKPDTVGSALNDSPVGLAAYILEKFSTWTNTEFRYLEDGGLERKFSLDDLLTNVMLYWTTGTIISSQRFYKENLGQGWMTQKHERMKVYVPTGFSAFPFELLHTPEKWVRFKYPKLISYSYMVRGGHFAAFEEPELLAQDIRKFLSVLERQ", "type": "in vitro ADME", "conditions": "1 μM elaidamide; 40 and 400 μM substrate; HLM"}}}
{"compound": "O=CC=O", "note": "[glyoxal]", "values": [{"measurement": "depletion under reaction conditions", "setting": "[1]", "result": "no significant depletion"}]}
{"compound": "CC(=O)C=O", "note": "[methylglyoxal]", "values": [{"measurement": "depletion under reaction conditions", "setting": "[1]", "result": "only significant depletion after 60 min"}]}
{"compound": "CN1C(C(=O)Nc2nccs2)=C(O)c2ccccc2S1(=O)=O", "note": "[sudoxicam, N-(2-thiazolyl)-4-hydroxy-2-methyl-2H-1,2-benzothiazine-3-carboxamide 1,1-dioxide]", "values": [{"measurement": "inhibition of alpha-dicarbonyl formation by elaidamide", "setting": "[2]", "result": 90, "unit": "%"}]}
